What was measured:
[1] = test system: MFE-296 (Endometrial Carcinoma); test: Bliss excess, mean over the matrix (fraction); higher = more synergy
Procedure, shortened: (§1)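 Bliss excess equals the observed combination effect minus the expected value EA + EB − EA·EB, where EA and EB are the effects of each agent alone. Combination Emax is the second-highest inhibition within the matrix. Inhibition was scaled from CellTiter-Glo 2.0 luminescence, with 0 set by vehicle wells and 1 by blank wells, after 72 hours of two-drug dosing of cells plated in 1536-well plates.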

[2] = test system: MDA-MB-361 (Breast Carcinoma); test: as above
Procedure, shortened: as §1

[3] = test system: DEL (T-Cell Non-Hodgkin's Lymphoma); test: as above
Procedure, shortened: as §1

42-MG-BA (Glioblastoma) [4] = test: as above
Procedure, shortened: as §1

[5] = test system: COLO-205 (Colorectal Carcinoma); test: as above
Procedure, shortened: as §1

[6] = test system: Daoy (Other Solid Carcinomas); test: as above
Procedure, shortened: as §1

[7] = test system: SNU-5 (Gastric Carcinoma); test: as above
Procedure, shortened: as §1

[8] = test system: LNCaP-Clone-FGC (Prostate Carcinoma); test: as above
Procedure, shortened: as §1

AGS (Gastric Carcinoma) [9] = test: as above
Procedure, shortened: as §1

[10] = test system: HuP-T4 (Pancreatic Carcinoma); test: as above
Procedure, shortened: as §1

[11] = test system: B-CPAP (Thyroid Gland Carcinoma); test: as above
Procedure, shortened: as §1

[12] = test system: EC-GI-10 (Esophageal Squamous Cell Carcinoma); test: as above
Procedure, shortened: as §1

[13] = test system: TCCSUP (Bladder Carcinoma); test: as above
Procedure, shortened: as §1

[14] = test system: RC-K8 (B-Cell Non-Hodgkin's Lymphoma); test: as above
Procedure, shortened: as §1

ES4 (Ewing's Sarcoma) [15] = test: as above
Procedure, shortened: as §1

[16] = test system: KP-1N (Pancreatic Carcinoma); test: as above
Procedure, shortened: as §1

[17] = test system: OVCA420 (Ovarian Carcinoma); test: as above
Procedure, shortened: as §1

[18] = test system: SK-ES-1 (Ewing's Sarcoma); test: as above
Procedure, shortened: as §1

NOS-1 (Osteosarcoma) [19] = test: as above
Procedure, shortened: as §1

[20] = test system: KYSE-520 (Esophageal Squamous Cell Carcinoma); test: as above
Procedure, shortened: as §1

[21] = test system: LU-135 (Small Cell Lung Carcinoma); test: as above
Procedure, shortened: as §1

[22] = test system: HCC1806 (Breast Carcinoma); test: as above
Procedure, shortened: as §1

[23] = test system: MFE-296 (Endometrial Carcinoma); test: combination Emax (second highest fraction inhibited in the dose matrix, 72 h); higher = more inhibition; extreme values may be limits of the assay
Procedure, shortened: as §1

[24] = test system: MDA-MB-361 (Breast Carcinoma); test: as above
Procedure, shortened: as §1

[25] = test system: DEL (T-Cell Non-Hodgkin's Lymphoma); test: as above
Procedure, shortened: as §1

42-MG-BA (Glioblastoma) [26] = test: as above
Procedure, shortened: as §1

[27] = test system: COLO-205 (Colorectal Carcinoma); test: as above
Procedure, shortened: as §1

[28] = test system: Daoy (Other Solid Carcinomas); test: as above
Procedure, shortened: as §1

[29] = test system: SNU-5 (Gastric Carcinoma); test: as above
Procedure, shortened: as §1

[30] = test system: LNCaP-Clone-FGC (Prostate Carcinoma); test: as above
Procedure, shortened: as §1

AGS (Gastric Carcinoma) [31] = test: as above
Procedure, shortened: as §1

[32] = test system: HuP-T4 (Pancreatic Carcinoma); test: as above
Procedure, shortened: as §1

[33] = test system: B-CPAP (Thyroid Gland Carcinoma); test: as above
Procedure, shortened: as §1

[34] = test system: EC-GI-10 (Esophageal Squamous Cell Carcinoma); test: as above
Procedure, shortened: as §1

[35] = test system: TCCSUP (Bladder Carcinoma); test: as above
Procedure, shortened: as §1

[36] = test system: RC-K8 (B-Cell Non-Hodgkin's Lymphoma); test: as above
Procedure, shortened: as §1

ES4 (Ewing's Sarcoma) [37] = test: as above
Procedure, shortened: as §1

[38] = test system: KP-1N (Pancreatic Carcinoma); test: as above
Procedure, shortened: as §1

[39] = test system: OVCA420 (Ovarian Carcinoma); test: as above
Procedure, shortened: as §1

[40] = test system: SK-ES-1 (Ewing's Sarcoma); test: as above
Procedure, shortened: as §1

NOS-1 (Osteosarcoma) [41] = test: as above
Procedure, shortened: as §1

[42] = test system: KYSE-520 (Esophageal Squamous Cell Carcinoma); test: as above
Procedure, shortened: as §1

[43] = test system: LU-135 (Small Cell Lung Carcinoma); test: as above
Procedure, shortened: as §1

[44] = test system: HCC1806 (Breast Carcinoma); test: as above
Procedure, shortened: as §1

In the case of `C[C@@H](c1ccc2nccn2c1)n1nnc2ncc(-c3cnn(C)c3)nc21` [Savolitinib] + CN(CC[C@H](CSC1=CC=CC=C1)NC2=C(C=C(C=C2)S(=O)(=O)NC(=O)C3=CC=C(C=C3)N4CCC(CC4)[C@H](C5=CC=CC=C5C6=CC=C(C=C6)Cl)O)S(=O)(=O)C(F)(F)F)CCO [AZD4320] (first compound max 1 µM, 7x7, partner max 1 µM), the Bliss excess [1] is reported as -0.0181, the Bliss excess [2] is reported as -0.0425 and the Bliss excess [3] is reported as -0.0318. For the same compound, the Bliss excess (42-MG-BA (Glioblastoma) [4]) was -0.0553, the Bliss excess [5] was -0.043 and the Bliss excess [6] was -0.0547. The Bliss excess [7] was 0.029, the Bliss excess [8] was -0.0205 and the Bliss excess (AGS (Gastric Carcinoma) [9]) was -0.0353. The Bliss excess [10] was -0.0544, the Bliss excess [11] was 0.0041 and the Bliss excess [12] was 0.0005. For the same compound, the Bliss excess [13] was -0.0469, the Bliss excess [14] was -0.0478 and the Bliss excess (ES4 (Ewing's Sarcoma) [15]) was -0.0622. It also gave a Bliss excess [16] of -0.0755, a Bliss excess [17] of -0.0691 and a Bliss excess [18] of -0.0692. The Bliss excess (NOS-1 (Osteosarcoma) [19]) was -0.0137, the Bliss excess [20] was -0.0298 and the Bliss excess [21] was 0.0057. The Bliss excess [22] was -0.0031, the “combination Emax” value [23] was 0.2 and the “combination Emax” value [24] was 0.114. For the same compound, the “combination Emax” value [25] was 0.217, the “combination Emax” value (42-MG-BA (Glioblastoma) [26]) was 0.222 and the “combination Emax” value [27] was 0.566. The “combination Emax” value [28] was 0.139, the “combination Emax” value [29] was 1 and the “combination Emax” value [30] was 0.258. The “combination Emax” value (AGS (Gastric Carcinoma) [31]) was 0.377, the “combination Emax” value [32] was 0.124 and the “combination Emax” value [33] was 0.276. For the same compound, the “combination Emax” value [34] was 0.27, the “combination Emax” value [35] was 0.194 and the “combination Emax” value [36] was 0.504. For the same compound, the “combination Emax” value (ES4 (Ewing's Sarcoma) [37]) was 0.557, the “combination Emax” value [38] was 0.175 and the “combination Emax” value [39] was 0.192. The “combination Emax” value [40] was 0.758, the “combination Emax” value (NOS-1 (Osteosarcoma) [41]) was 0.506 and the “combination Emax” value [42] was 0.2. For the same compound, the “combination Emax” value [43] was 1 and the “combination Emax” value [44] was 0.436.
